Laboratory results: ChEMBL document CHEMBL1201862, “PubChem BioAssay data set” (2004)
The source made the active and inactive calls.

Columns and labels:
[1] = NIH-3T3 fibroblast cytotoxicity, dose response, cytotoxicity control, cell-based, fluorescence, Alamar Blue, secondary assay (AID 2327); assay type: functional;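 also: NIH-3T3 mouse fibroblasts cultured with fluconazole at 8 µg/mL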
[2] = C. albicans growth with fluconazole, confirmation, fluorescence, retest (AID 2467); assay type: functional, cell-based
[3] = molecular target: T1, Short transient receptor potential channel 4 (Mus musculus, UniProt Q9QUQ5); experiment: mouse TRPC4 channel activators, dose response, cell-based, HEK293 TRPC4/mu-opioid, Fluo-4 calcium (AID 434937); assay type: functional
T1 sequence (Q9QUQ5 whole entry): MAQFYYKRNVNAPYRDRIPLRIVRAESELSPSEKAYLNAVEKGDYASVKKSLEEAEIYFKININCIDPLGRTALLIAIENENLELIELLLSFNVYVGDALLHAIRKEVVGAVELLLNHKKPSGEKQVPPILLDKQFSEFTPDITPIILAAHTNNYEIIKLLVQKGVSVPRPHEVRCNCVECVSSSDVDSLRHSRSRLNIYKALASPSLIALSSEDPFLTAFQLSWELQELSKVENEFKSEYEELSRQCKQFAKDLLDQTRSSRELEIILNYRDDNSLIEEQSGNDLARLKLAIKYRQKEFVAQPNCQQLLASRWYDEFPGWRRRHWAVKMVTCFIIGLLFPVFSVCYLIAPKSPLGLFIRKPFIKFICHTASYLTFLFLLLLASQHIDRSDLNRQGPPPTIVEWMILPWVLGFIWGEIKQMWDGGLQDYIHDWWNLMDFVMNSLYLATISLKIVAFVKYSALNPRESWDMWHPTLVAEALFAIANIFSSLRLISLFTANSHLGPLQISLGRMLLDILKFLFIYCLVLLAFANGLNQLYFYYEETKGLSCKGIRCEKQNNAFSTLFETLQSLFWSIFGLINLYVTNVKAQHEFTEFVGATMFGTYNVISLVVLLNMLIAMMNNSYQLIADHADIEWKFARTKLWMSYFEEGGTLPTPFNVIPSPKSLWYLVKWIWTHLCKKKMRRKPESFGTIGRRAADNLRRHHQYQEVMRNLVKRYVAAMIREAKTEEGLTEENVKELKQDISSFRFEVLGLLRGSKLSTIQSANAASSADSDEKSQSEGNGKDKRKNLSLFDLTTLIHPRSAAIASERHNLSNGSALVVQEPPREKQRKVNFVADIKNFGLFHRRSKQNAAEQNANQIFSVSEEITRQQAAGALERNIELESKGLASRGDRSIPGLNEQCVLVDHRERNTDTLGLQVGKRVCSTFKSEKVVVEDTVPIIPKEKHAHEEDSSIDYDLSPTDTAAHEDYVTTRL

Vero [4] = experiment: cells; assay type: functional, cell-based; conditions: Chlorocebus sabaeus
Vero [5] = experiment: cells; assay type: functional; conditions: Chlorocebus sabaeus
[6] = inhibitors of Trypanosoma cruzi host-cell infection, confirmation, beta-gal luminescence, NIH3T3 host cells (AID 2630); assay type: functional, cell-based; conditions: Mus musculus
Cytochrome P450 1A2 [7] = molecular target: T2, Cytochrome P450 1A2 (Homo sapiens, UniProt P05177);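 also: PubChem cytochrome P450 panel assay, CYP1A2 panel member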
T2 sequence (P05177 whole entry): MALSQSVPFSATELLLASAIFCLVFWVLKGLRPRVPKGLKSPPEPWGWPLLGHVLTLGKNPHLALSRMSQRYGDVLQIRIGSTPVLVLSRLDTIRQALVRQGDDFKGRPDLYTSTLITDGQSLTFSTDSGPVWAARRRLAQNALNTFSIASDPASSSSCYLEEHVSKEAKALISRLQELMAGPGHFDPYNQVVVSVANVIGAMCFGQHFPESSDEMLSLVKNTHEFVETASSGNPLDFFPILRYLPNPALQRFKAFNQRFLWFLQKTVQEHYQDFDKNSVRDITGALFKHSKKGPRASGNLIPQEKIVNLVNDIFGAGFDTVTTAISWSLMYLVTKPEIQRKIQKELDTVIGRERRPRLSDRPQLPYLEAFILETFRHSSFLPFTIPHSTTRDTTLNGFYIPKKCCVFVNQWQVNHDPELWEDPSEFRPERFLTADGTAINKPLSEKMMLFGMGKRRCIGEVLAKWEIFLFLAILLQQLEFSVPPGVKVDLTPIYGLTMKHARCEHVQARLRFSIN

[8] = molecular target: Voltage-gated inwardly rectifying potassium channel KCNH2 (Homo sapiens, UniProt Q12809); conditions: Potency;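 also: confirmatory quantitative high-throughput screen measuring inhibition of hERG channel activity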
[9] = insulin promoter down-regulators in MIN6 cells, imaging, high-content screening, mouse beta cells (AID 1628); assay type: functional
[10] = cytotoxicity in MIN6 insulinoma cells, dose response, cytotoxicity control, cell-based, mouse insulinoma (AID 2122); assay type: functional;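 also: confirmatory high-throughput counterscreen run to flag cytotoxic compounds; mouse MIN-6 beta cells carrying an insulin promoter eGFP reporter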
[11] = molecular target: Voltage-dependent T-type calcium channel subunit alpha-1H (Homo sapiens, UniProt O95180); experiment: Cav3.2 T-type channel blockers, cell-based, SynthLib3 library, HEK293 Cav3.2, fluorescence (AID 493041); assay type: functional
[12] = molecular target: Delta-type opioid receptor (Homo sapiens, UniProt P41143); experiment: Counterscreen for agonists of heterodimerization of the mu 1 (OPRM1) and delta 1 (OPRD1) opioid receptors: Luminescence-based cell-based high throughput dose response assay to identify agonists of OPRD1 homodimerization. [Related pubchem assays (depositor defined):AID504326, AID504355, AID504692, AID504904, AID504905]; assay type: functional
Mu-type opioid receptor = Mu-type opioid receptor (Homo sapiens, UniProt P35372); experiment: Counterscreen for agonists of heterodimerization of the mu 1 (OPRM1) and delta 1 (OPRD1) opioid receptors: Luminescence-based cell-based high throughput dose response assay to identify agonists of OPRM1 homodimerization.; assay type: functional;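 also: U2OS cells expressing OPRM1 and beta-arrestin as split beta-galactosidase partners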
[13] = molecular target: 5-hydroxytryptamine receptor 5A (Homo sapiens, UniProt P47898); experiment: Counterscreen for agonists of OPRM1-OPRD1 heterodimerization: luminescence-based cell-based high throughput dose response assay to identify agonists of 5-hydroxytryptamine (serotonin) 5A receptor (HTR5A). [Related pubchem assays (depositor defined):AID504326, AID504355, AID504692, AID504904, AID504905]; assay type: functional
Cytochrome P450 1A2 [14] = molecular target: T2, Cytochrome P450 1A2; remark: listed apart in the source
Cytochrome P450 2C9 = Cytochrome P450 2C9 (Homo sapiens, UniProt P11712)
Cytochrome P450 3A4 = Cytochrome P450 3A4 (Homo sapiens, UniProt P08684);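 also: CYP3A4 tested as one member of a cytochrome P450 panel screen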
[15] = molecular target: T3, Microphthalmia-associated transcription factor (Homo sapiens, UniProt O75030); experiment: TRPM1 promoter luciferase signal decrease, dose response, MITF inhibitor project, cell-based, SK-MEL-5, cherry-picked, set 3 (AID 493073); assay type: functional
T3 sequence (O75030 whole entry): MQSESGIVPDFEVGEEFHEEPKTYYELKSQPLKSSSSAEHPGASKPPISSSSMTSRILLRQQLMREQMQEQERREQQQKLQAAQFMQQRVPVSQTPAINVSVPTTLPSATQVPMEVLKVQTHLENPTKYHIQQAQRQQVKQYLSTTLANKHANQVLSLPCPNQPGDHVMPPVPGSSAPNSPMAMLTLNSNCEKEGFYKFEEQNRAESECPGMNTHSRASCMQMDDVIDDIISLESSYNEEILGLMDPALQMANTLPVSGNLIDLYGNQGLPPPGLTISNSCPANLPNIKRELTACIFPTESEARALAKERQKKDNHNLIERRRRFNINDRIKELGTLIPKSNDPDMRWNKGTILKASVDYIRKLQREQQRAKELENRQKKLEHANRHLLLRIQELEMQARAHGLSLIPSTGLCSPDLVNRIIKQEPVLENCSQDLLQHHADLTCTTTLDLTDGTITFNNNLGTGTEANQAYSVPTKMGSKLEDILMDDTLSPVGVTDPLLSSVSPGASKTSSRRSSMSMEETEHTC

A-375 [16] = experiment: MITF: Counter assay: A375 proliferation Measured in Cell-Based System Using Plate Reader - 2084-03_Inhibitor_Dose_DryPowder_Activity. [Related pubchem assays (depositor defined):AID488944]; assay type: functional; conditions: Homo sapiens
A-375 [17] = experiment: A375 melanoma cell viability reduction, dose response, counter-screen for MITF modulator project, cherry-pick samples, set 2 (AID 540335); assay type: functional, cell-based; conditions: Homo sapiens
[18] = inhibitors of intracellular T. cruzi replication, confirmation, NIH3T3 host cells, beta-gal luminescence (AID 2044); assay type: functional, cell-based;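 also: intracellular parasites grown in NIH/3T3 mouse fibroblasts as host cells; luminescent beta-galactosidase reporter signal from transgenic T. cruzi replicating inside host cells; inhibitors lower the luminescence signal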
[19] = cytotoxicity toward NIH3T3 fibroblasts, dose response, counter-screen, cell-based, ATP luminescence, mouse fibroblasts (AID 2010); assay type: functional;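 also: cells exposed to compound for about 90 hours before reading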
Jurkat = experiment: antigen receptor-induced NF-kB inhibitors, dose response, Jurkat, luciferase reporter, luminescence, B- and T-cell (AID 489004); assay type: functional, cell-based; conditions: Homo sapiens;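 also: NF-kB luciferase reporter Jurkat cells stimulated with PMA plus ionomycin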
[20] = cytotoxicity in HEK-293T NF-kB-Luc cells, dose response, cytotoxicity control for B/T-cell NF-kB inhibitor project, cell-based, uHTS hits (AID 489019); assay type: functional;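 also: IC50 reflects cytotoxicity as loss of cell viability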
INS1 = experiment: beta cell apoptosis inhibitors, cytokine rescue, dose response, luminescence, retest (AID 449756); assay type: functional, cell-based; conditions: Rattus norvegicus;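 also: cell death triggered by IL-1 beta plus TNF-alpha plus IFN-gamma mixture; protective hits raise ATP signal compared with cytokine alone wells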
[21] = Luminescence Cell-Based Dose Retest to Confirm Inhibitors of Cancer Stem Cells. [Related pubchem assays (depositor defined):AID2717, AID2721]; assay type: functional; conditions: Homo sapiens
CAAX prenyl protease 2 [22] = molecular target: T4, CAAX prenyl protease 2 (Saccharomyces cerevisiae S288c, UniProt Q03530); assay type: biochemical
T4 sequence (Q03530 whole entry): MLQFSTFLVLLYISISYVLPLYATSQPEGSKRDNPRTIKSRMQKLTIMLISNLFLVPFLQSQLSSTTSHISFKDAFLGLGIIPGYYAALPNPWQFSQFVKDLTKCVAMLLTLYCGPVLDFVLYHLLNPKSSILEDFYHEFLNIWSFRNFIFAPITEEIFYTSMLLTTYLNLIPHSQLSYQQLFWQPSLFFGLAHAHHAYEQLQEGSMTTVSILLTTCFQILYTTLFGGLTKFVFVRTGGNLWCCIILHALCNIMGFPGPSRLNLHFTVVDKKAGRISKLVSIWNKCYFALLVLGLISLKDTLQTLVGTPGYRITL

[23] = cytotoxicity in HMLE control line with eGFP shRNA, dose response, counter-screen for HMLE_sh_ECad selective toxicity project, cell-based, HMLE_sh_eGFP, luminescence (AID 463074); assay type: functional, Homo sapiens;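 also: HMLE human mammary epithelial cells expressing control shRNA against eGFP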
[24] = mammalian cell cytotoxicity, dose response, cytotoxicity control, plate reader, cherry-pick samples (AID 504397); assay type: functional, cell-based
CAAX prenyl protease 2 [25] = molecular target: CAAX prenyl protease 2 (Homo sapiens, UniProt Q9Y256); experiment: human Rce1 protease inhibitors, dose response, biochemical, yeast membranes, quenched-peptide fluorescence, cherry-pick (AID 588849)
CAAX prenyl protease 2 (Homo sapiens, UniProt Q9Y256), sequence (Q9Y256 whole entry): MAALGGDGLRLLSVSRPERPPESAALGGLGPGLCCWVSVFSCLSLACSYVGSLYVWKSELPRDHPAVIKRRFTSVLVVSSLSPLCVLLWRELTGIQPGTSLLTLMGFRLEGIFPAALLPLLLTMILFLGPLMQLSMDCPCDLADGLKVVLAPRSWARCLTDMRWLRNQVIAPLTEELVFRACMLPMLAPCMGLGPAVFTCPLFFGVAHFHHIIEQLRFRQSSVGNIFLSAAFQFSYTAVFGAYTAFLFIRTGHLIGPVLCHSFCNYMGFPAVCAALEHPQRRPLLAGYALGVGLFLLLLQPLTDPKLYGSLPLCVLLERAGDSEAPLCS

Cytochrome P450 3A4, sequence (P08684 whole entry): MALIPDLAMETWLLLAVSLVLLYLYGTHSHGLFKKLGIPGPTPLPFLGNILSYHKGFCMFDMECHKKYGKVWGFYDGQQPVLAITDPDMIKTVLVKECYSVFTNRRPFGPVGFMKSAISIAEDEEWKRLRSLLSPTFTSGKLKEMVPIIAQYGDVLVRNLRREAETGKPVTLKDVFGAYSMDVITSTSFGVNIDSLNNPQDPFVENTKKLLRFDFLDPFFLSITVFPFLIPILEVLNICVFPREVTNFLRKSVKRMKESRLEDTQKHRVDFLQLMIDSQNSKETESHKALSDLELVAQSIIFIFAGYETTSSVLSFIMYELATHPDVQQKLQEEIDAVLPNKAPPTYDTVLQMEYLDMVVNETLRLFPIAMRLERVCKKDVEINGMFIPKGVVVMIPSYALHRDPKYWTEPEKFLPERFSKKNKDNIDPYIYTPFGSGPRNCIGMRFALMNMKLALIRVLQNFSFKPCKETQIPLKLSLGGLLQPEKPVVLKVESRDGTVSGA
5-hydroxytryptamine receptor 5A, sequence (P47898 whole entry): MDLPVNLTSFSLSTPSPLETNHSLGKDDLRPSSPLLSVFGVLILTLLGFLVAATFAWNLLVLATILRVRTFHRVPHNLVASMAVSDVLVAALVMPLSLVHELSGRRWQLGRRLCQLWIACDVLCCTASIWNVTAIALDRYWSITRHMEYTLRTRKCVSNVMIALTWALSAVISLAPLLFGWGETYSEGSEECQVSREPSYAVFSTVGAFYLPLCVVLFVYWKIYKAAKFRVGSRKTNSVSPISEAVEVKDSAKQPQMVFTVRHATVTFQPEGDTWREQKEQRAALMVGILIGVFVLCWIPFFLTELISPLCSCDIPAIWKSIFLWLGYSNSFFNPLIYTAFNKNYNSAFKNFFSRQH
Voltage-gated inwardly rectifying potassium channel KCNH2, sequence (Q12809 whole entry): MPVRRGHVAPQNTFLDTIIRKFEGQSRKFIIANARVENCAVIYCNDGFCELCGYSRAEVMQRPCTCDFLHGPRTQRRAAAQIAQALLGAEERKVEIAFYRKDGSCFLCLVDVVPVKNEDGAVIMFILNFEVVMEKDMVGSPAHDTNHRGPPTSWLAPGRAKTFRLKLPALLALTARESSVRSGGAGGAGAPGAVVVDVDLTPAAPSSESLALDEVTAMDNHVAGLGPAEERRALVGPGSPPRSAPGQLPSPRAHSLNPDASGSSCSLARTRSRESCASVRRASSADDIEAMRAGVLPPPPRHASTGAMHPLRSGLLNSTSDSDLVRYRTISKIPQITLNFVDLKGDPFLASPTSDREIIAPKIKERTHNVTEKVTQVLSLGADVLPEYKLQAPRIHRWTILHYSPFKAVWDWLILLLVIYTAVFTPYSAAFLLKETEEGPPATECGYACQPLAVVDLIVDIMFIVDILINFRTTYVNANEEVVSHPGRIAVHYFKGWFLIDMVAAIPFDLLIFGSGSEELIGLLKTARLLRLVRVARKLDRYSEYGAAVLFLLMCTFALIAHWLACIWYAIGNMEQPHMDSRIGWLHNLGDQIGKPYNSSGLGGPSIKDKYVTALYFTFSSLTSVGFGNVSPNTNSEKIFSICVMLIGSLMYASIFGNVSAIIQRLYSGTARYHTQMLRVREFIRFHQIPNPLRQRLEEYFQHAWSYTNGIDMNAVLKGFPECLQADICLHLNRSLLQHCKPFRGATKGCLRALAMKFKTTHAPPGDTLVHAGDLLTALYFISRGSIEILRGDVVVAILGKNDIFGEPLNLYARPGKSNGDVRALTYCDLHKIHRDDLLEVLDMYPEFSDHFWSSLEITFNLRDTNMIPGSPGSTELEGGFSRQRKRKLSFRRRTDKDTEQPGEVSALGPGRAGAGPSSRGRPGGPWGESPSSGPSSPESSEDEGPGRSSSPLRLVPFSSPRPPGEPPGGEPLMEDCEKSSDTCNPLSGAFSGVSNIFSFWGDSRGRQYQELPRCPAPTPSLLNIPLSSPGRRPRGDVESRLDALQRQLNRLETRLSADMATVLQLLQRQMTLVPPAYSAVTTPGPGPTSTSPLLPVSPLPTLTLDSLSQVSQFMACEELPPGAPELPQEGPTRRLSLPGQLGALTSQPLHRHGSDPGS
Mu-type opioid receptor, sequence (P35372 whole entry): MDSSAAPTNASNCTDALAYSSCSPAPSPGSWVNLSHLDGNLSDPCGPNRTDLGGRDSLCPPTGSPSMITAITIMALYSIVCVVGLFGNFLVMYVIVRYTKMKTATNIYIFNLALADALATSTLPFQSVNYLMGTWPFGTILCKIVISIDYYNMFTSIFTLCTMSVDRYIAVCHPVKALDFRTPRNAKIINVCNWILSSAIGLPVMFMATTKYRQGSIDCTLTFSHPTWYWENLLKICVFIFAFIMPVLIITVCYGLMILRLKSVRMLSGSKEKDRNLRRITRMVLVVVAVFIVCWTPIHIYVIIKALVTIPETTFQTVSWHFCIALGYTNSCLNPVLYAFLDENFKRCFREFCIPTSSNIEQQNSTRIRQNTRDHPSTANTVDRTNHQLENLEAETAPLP
Delta-type opioid receptor, sequence (P41143 whole entry): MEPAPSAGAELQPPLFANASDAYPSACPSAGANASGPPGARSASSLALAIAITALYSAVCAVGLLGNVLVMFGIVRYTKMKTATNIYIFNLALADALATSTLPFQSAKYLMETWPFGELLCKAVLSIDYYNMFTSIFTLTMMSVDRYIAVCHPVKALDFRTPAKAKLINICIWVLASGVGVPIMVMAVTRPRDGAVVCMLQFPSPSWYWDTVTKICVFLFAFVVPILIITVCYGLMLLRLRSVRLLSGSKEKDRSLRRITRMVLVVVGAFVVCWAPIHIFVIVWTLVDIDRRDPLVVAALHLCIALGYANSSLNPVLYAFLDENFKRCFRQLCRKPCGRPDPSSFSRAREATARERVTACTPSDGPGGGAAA
Cytochrome P450 2C9, sequence (P11712 whole entry): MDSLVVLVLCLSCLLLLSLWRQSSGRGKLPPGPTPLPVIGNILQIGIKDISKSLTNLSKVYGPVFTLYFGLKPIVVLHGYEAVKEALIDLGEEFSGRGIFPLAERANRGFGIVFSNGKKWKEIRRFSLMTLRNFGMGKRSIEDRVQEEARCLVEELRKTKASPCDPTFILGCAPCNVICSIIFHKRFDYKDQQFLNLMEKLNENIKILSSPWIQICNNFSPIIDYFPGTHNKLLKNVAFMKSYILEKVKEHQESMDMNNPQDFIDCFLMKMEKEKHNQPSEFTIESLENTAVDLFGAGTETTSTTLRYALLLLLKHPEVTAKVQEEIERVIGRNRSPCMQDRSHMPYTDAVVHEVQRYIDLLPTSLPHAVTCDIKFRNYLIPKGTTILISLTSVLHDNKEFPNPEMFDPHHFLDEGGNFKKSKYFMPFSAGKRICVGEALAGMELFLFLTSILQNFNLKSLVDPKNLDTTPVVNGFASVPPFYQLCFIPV

In the case of Cc1cccc(C(=O)NNC(=S)NC(=O)c2cccs2)c1, the EC50 [1] is reported as > 160 µM (inactive), the EC50 [2] is reported as 2.47 µM (active) and the EC50 [3] is reported as 5.96 µM (active). The IC50 (Vero [4]) was 23.5 µM (active) and the CC50 (Vero [5]) was > 25 µM (active).

With COc1ccc(C(=O)C2CCCN(CCc3ccccc3)C2)cc1OC (stereo unspecified) the EC50 [6] was 0.0558 µM (active).

In the case of COc1ccccc1OC[C@H](O)CN1CCN(CC(=O)Nc2c(C)cccc2C)CC1, the AC50 (Cytochrome P450 1A2 [7]) is reported as “inactive”.

In the case of N[C@@H](Cc1ccc(F)cc1)C(=O)O, the AC50 [8] is reported as 35.5 µM (inconclusive).

In the case of COc1ccc2nc(Nc3nc(C)c(CCC(C)C)c(O)n3)nc(C)c2c1, the IC50 [9] is reported as 1.95 µM (active) and the IC50 [10] is reported as 5.61 µM (active).

With CC(C)CN1C[C@@H]2C(CNC(=O)c3cc(Cl)cc(Cl)c3)[C@@H]2C1 (stereo partly specified) the EC50 [11] was 10 µM (active).

For CN1C(CC(=O)Nc2ccc(Br)cc2)c2ccccc2CC1(C)C (stereo unspecified), the EC50 [3] was 2.11 µM (active), the EC50 [12] was 86.4 µM (inactive) and the EC50 (Mu-type opioid receptor) was > 92.5 µM (inactive). The EC50 [13] was > 92.5 µM (inactive).

With CC(NC(=O)c1ccc(N2CCCC2=O)cc1)c1ccccc1 (stereo unspecified) the AC50 (Cytochrome P450 1A2 [14]) was 39.8 µM (inconclusive), the AC50 (Cytochrome P450 2C9) was 15.8 µM (inconclusive) and the AC50 (Cytochrome P450 3A4) was “inconclusive”.

For Cc1ccc([N+](=O)[O-])cc1N1C(=O)CS/C1=N\NC(=O)c1cccnc1, the AC50 [15] was 48.7 µM (active), the AC50 (A-375 [16]) was > 35 µM (active) and the AC50 (A-375 [17]) was > 35 µM (active).

In the case of N=c1c2c(n(Cc3ccc(Br)cc3)c3c1CCC3)CCCC2, the EC50 [18] is reported as 0.26 µM (active), the EC50 [19] is reported as > 60 µM (inconclusive) and the IC50 (Jurkat) is reported as 24.6 µM (inactive). The IC50 [20] was > 80 µM (inactive) and the AC50 (INS1) was 2.64 µM (active).

With Cc1ccc(OCCN2C(=O)C(=O)c3cc(C)ccc32)cc1 the AC50 [21] was 24.2 µM (active), the AC50 (CAAX prenyl protease 2 [22]) was 1.6 µM (active) and the AC50 [23] was 145 µM (active). The AC50 [24] was 4.64 µM (active) and the AC50 (CAAX prenyl protease 2 [25]) was 12.8 µM (active).
